The subject of assay [1] is NUGC-4. The assay is described as follows: Cytotoxicity against KK-LC-1-positive human NUGC-4 cells incubated for 72 hrs by CCK-8 assay. Type of assay: functional, cell-based. The conditions noted are these: NUGC-4, 72 h.
The subject of a further assay is HGC-27. Briefly: Cytotoxicity against KK-LC-1-negative human HGC-27 cells incubated for 72 hrs by CCK-8 assay. Type of assay: functional, cell-based. The note with it: HGC-27, 72 h. For orientation: Tetrazolium dyes change colour on reduction, which living cells bring about.
Assay [2] relates to MKN-45. Briefly: Cytotoxicity against KK-LC-1-positive human MKN-45 cells incubated for 72 hrs by CCK-8 assay. Type of assay: functional, cell-based. The note with it: MKN-45, 72 h.
Assay [3] has as its system MKN-45. Briefly: Antitumor activity against KK-LC-1-positive human MKN-45 cells xenografted in male BALB/c nude mouse assessed as reduction in tumor growth. Type of assay: functional. A general note: A xenograft is tissue or cells of one species grown in another, often human tumour cells in immunodeficient mice.
The subject of assay [4] is NUGC-4. The assay is described as follows: Induction of mitotic arrest in KK-LC-1-positive human NUGC-4 cells xenografted in nude mouse assessed as number of pHH3-positive nuclei in tumor at 4 nmol, iv administered as single dose and measured after 24 hrs by pHH3 immunohistochemical staining method relative to control. Type of assay: functional.
Assay [5] relates to MKN-45. Briefly: Antitumor activity against KK-LC-1-positive human MKN-45 cells xenografted in male BALB/c nude mouse assessed as tumor volume. Type of assay: functional.

The IC50 is the midpoint of a concentration-inhibition curve. A higher IC50 goes with weaker potency.

The structures appear in SMILES notation. Active and inactive are the calls of the source. The calls are words filed in the database; no cut-off is given here. Where a SMILES comes first, the peptide text is derived from it. [ ]: non-standard residue; d: D form. The star is where a group is joined. Dolaproine = CO[C@@H]([C@@H]1CCCN1)[C@@H](C)C(=O)O; Dil = CC[C@H](C)[C@H](NC)[C@@H](CC(=O)O)OC; X1 = C[C@@H](N*)[C@@H](O)c1ccccc1; NMeV = CN[C@H](C(=O)O)C(C)C

Regarding `CC[C@H](C)[C@@H]([C@@H](CC(=O)N1CCC[C@H]1[C@H](OC)[C@@H](C)C(=O)N[C@H](C)[C@@H](O)c1ccccc1)OC)N(C)C(=O)[C@@H](NC(=O)[C@@H](NC)C(C)C)C(C)C` (H-[NMeV]V[Dil][Dolaproine]-X1), the IC50 with NUGC-4 [1] was determined as 11 nM; in the assay with HGC-27 it was 7.18 nM; in the assay with MKN-45 [2], 10.7 nM. Besides, the outcome in the assay on MKN-45 [3] was Active. Moreover, the Activity with NUGC-4 [4] is 28.75; with MKN-45 [5], 602.1 mm3.

Values taken from ChEMBL document CHEMBL5108004, “An auristatin-based peptide-drug conjugate targeting Kita-Kyushu lung cancer antigen 1 for precision chemoradiotherapy in gastric cancer” (Eur J Med Chem, 2022).
